Reference: ChEMBL document CHEMBL6177985, “Discovery of Novel Cyclic Peptides as SMAD2-SMAD4 Interaction Inhibitors for the Treatment of Hepatic Fibrosis” (J Med Chem, 2025)
Activity calls are given as the source filed them. No cut-off for these calls is given here.

Columns and labels:
Mus musculus [1] = species: Mus musculus; assay: Effect on gene expression in CCl4-induced male C57BL/6J mouse assessed as upregulation of genes associated with inflammatory response in liver tissue by RT-PCR analysis; format: functional, organism-based
LX-2 [2] = assay: Downregulation of TGF-beta induced COL1A1 level in human LX-2 cells at 100 uM by Immunoblot analysis; format: functional, cell-based
LX-2 [3] = assay: Inhibition of HSC activation in TGFbeta-induced human LX-2 cells assessed as reduction in alpha-SMA at 100 uM by Western blot analysis; format: functional, cell-based
Mus musculus [4] = assay: Anti-fibrotic activity against CCl4-induced liver fibrosis male C57BL/6J mouse model assessed as reduction in SMAD2 level in liver at 400 microg/kg, ip measured for 3 weeks by Western blot analysis; format: functional, organism-based; conditions: dose 400.0 µg/kg
LX-2 [5] = assay: Downregulation of TGF-beta induced SMAD2 phosphorylation level in human LX-2 cells at 100 uM by Immunoblot analysis; format: functional, cell-based
Mus musculus [6] = assay: Anti-fibrotic activity against CCl4-induced liver fibrosis male C57BL/6J mouse model assessed as reduction of ALT level at 400 microg/kg, ip measured for 3 weeks by biochemical analysis; format: functional, organism-based; conditions: dose 400.0 µg/kg
LX-2 [7] = assay: Inhibition of TGF-beta induced SMAD3 phosphorylation level in human LX-2 cells at 100 uM by Western blot analysis; format: functional, cell-based
Mus musculus [8] = assay: Anti-fibrotic activity against CCl4-induced liver fibrosis male C57BL/6J mouse model assessed as decrease in inflammatory infiltration at 400 microg/kg, ip measured for 3 weeks; format: functional, organism-based; conditions: dose 400.0 µg/kg
Mus musculus [9] = assay: Anti-fibrotic activity against CCl4-induced liver fibrosis male C57BL/6J mouse model assessed as alleviation of alpha SMA level at 400 microg/kg, ip measured for 3 weeks by immunohistochemical staining based analysis; format: functional, organism-based; conditions: dose 400.0 µg/kg
LX-2 [10] = assay: Inhibition of TGF-beta induced SMAD1/5/8 phosphorylation level in human LX-2 cells at 100 uM by Western blot analysis; format: functional, cell-based
Mus musculus [11] = assay: Anti-fibrotic activity against CCl4-induced liver fibrosis male C57BL/6J mouse model assessed as reduction in P65 phosphorylation level in liver at 400 microg/kg, ip measured for 3 weeks by Western blot analysis; format: functional, organism-based; conditions: dose 400.0 µg/kg
LX-2 [12] = assay: Inhibition of HSC activation in TGFbeta-induced human LX-2 cells assessed as reduction in COL1A1 by Western blot analysis; format: functional, cell-based; conditions: dose 25-100 µM
LX-2 [13] = assay: Downregulation of TGF-beta induced alpha-SMA level in human LX-2 cells at 100 uM by Immunoblot analysis; format: functional, cell-based
LX-2 [14] = assay: Inhibition of TGF-beta induced SMAD2 phosphorylation level in human LX-2 cells at 100 uM by Western blot analysis; format: functional, cell-based
Mus musculus [15] = assay: Anti-fibrotic activity against CCl4-induced liver fibrosis male C57BL/6J mouse model assessed as decrease in collagen deposition at 400 microg/kg, ip measured for 3 weeks; format: functional, organism-based; conditions: dose 400.0 µg/kg
LX-2 [16] = assay: Antifibrotic activity against TGF-beta1 stimulated human LX-2 cells assessed as reduction in COL1A1 expression at 100 uM incubated for 24 hrs by Western blotting analysis; format: functional, cell-based
Mus musculus [17] = assay: Anti-fibrotic activity against CCl4-induced liver fibrosis male C57BL/6J mouse model assessed as reduction in alpha-SMA expression in liver at 400 microg/kg, ip measured for 3 weeks by Western blot analysis; format: functional, organism-based; conditions: dose 400.0 µg/kg
LX-2 [18] = assay: Antifibrotic activity against TGF-beta1 stimulated human LX-2 cells assessed as reduction in alpha-SMA expression at 100 uM incubated for 24 hrs by Western blotting analysis; format: functional, cell-based
Mus musculus [19] = assay: Anti-fibrotic activity against CCl4-induced liver fibrosis male C57BL/6J mouse model assessed as effect on SMAD3 phosphorylation in liver at 400 microg/kg, ip measured for 3 weeks by Western blot analysis; format: functional, organism-based; conditions: dose 400.0 µg/kg
LX-2 [20] = assay: Inhibition of HSC activation in TGFbeta-induced human LX-2 cells assessed as reduction in COL1A1 at 100 uM by Western blot analysis; format: functional, cell-based
LX-2 [21] = assay: Downregulation of TGF-beta induced P65 phosphorylation level in human LX-2 cells at 100 uM by Immunoblot analysis; format: functional, cell-based
Mus musculus [22] = assay: Anti-fibrotic activity against CCl4-induced liver fibrosis male C57BL/6J mouse model assessed as alleviation of COL1A1 level at 400 microg/kg, ip measured for 3 weeks by immunohistochemical staining based analysis; format: functional, organism-based; conditions: dose 400.0 µg/kg
Mus musculus [23] = species: Mus musculus; assay: Effect on gene expression in CCl4-induced male C57BL/6J mouse assessed as change in genes associated with molecular function in liver tissue by RT-PCR analysis; format: functional, organism-based
LX-2 [24] = assay: Inhibition of SMAD2 phosphorylation level in TGF-beta and TMSO induced human LX-2 cells at 300 uM by immunoblot analysis; format: functional, cell-based
Mus musculus [25] = assay: Anti-fibrotic activity against CCl4-induced liver fibrosis male C57BL/6J mouse model assessed as effect on SMAD1/5/8 phosphorylation in liver at 400 microg/kg, ip measured for 3 weeks by Western blot analysis; format: functional, organism-based; conditions: dose 400.0 µg/kg
Mus musculus [26] = species: Mus musculus; assay: Effect on gene expression in CCl4-induced male C57BL/6J mouse assessed as change in genes associated with cellular component in liver tissue by RT-PCR analysis; format: functional, organism-based
LX-2 [27] = assay: Inhibition of HSC activation in TGFbeta-induced human LX-2 cells assessed as reduction in alpha-SMA by Western blot analysis; format: functional, cell-based; conditions: dose 25-100 µM
Mus musculus [28] = assay: Anti-fibrotic activity against CCl4-induced liver fibrosis male C57BL/6J mouse model assessed as reduction of AST level at 400 microg/kg, ip measured for 3 weeks by biochemical analysis; format: functional, organism-based; conditions: dose 400.0 µg/kg
LX-2 [29] = assay: Inhibition of TGF-beta induced SMAD2 phosphorylation level in human LX-2 cells by Western blot analysis; format: functional, cell-based; conditions: dose 25-100 µM
Mus musculus [30] = assay: Anti-fibrotic activity against CCl4-induced liver fibrosis male C57BL/6J mouse model assessed as reduction in COL1A1 expression in liver at 400 microg/kg, ip measured for 3 weeks by Western blot analysis; format: functional, organism-based; conditions: dose 400.0 µg/kg
Mus musculus [31] = species: Mus musculus; assay: Effect on gene expression in CCl4-induced male C57BL/6J mouse assessed as upregulation of genes associated with collagen deposition in liver tissue by RT-PCR analysis; format: functional, organism-based
Mus musculus [32] = species: Mus musculus; assay: Effect on gene expression in CCl4-induced male C57BL/6J mouse assessed as change in genes associated with biological process in liver tissue by RT-PCR analysis; format: functional, organism-based
[33] = Stability in rat serum measured up to 48 hrs by LC-MS/MS analysis; format: ADME, cell-free
Homo sapiens = species: Homo sapiens; assay: Inhibition of TGF-beta induced his tagged human SMAD2/human SMAD4 interaction at 100 uM incubated for 1 hr followed by anti-His-HRP addition and measured after 1 hr by blocking assay relative to control; conditions: time 2.0 hrs

C[C@@H]1NC(=O)[C@@H]2CCCN2C(=O)[C@H](CCCNC(=N)N)NC(=O)[C@H]([C@@H](C)O)NC(=O)[C@H](CO)NC(=O)[C@H]([C@@H](C)O)NC(=O)[C@H](CCC(=O)O)NC(=O)[C@H](Cc2c[nH]c3ccccc23)NC(=O)[C@@H](Cc2ccccc2)NC(=O)[C@H](CO)NC1=O
Activity (Mus musculus [1]): Active | Activity (LX-2 [2]): Active | inhibition (LX-2 [3]): Active | Activity (Mus musculus [4]): Active; Compound Showed Superior Effect Than M10 | Activity (LX-2 [5]): Active | Activity (Mus musculus [6]): Active | inhibition (LX-2 [7]): inactive | Activity (Mus musculus [8]): Active; Compound Showed Higher Efficacy Than M10 | Activity (Mus musculus [9]): Active | inhibition (LX-2 [10]): inactive | Activity (Mus musculus [11]): Active; Compound Showed Superior Effect Than M10 | inhibition (LX-2 [12]): Dose-dependent-effect | Activity (LX-2 [13]): Active | inhibition (LX-2 [14]): Active | Activity (Mus musculus [15]): Active; Compound Showed Higher Efficacy Than M10 | Activity (LX-2 [16]): Active | Activity (Mus musculus [17]): Active; Compound Showed Superior Effect Than M10 | Activity (LX-2 [18]): Active | Activity (Mus musculus [19]): inactive | inhibition (LX-2 [20]): Active | Activity (LX-2 [21]): Active | Activity (Mus musculus [22]): Active | Activity (Mus musculus [23]): Active | inhibition (LX-2 [24]): inactive | Activity (Mus musculus [25]): inactive | Activity (Mus musculus [26]): Active | inhibition (LX-2 [27]): Dose-dependent-effect | Activity (Mus musculus [28]): Active | inhibition (LX-2 [29]): Dose-dependent-effect | Activity (Mus musculus [30]): Active; Compound Showed Superior Effect Than M10 | Activity (Mus musculus [31]): Active | Activity (Mus musculus [32]): Active | Stability [33]: Stable | inhibition (Homo sapiens): 85.6%
